Data on 16 compounds can be found in PMC6414029, “Utilisation of the Prestwick Chemical Library to identify drugs that inhibit the growth of mycobacteria” (PLoS ONE, 2019).

pIC50: −log10 of the molar value. Values after ≈ are worked out from the molar mass of the structure shown. Where a name gives a salt, the structure may show the parent alone. Read-outs that look alike come from different tables or passages of the source.

By pIC50 is commonly meant the IC50 on a negative log10 scale, so that one unit is a factor of ten. Read a low pIC50 as a large IC50.

The subject of experiment [1] is BCG. Nature of the experiment: microbe, parasite or virus in culture. The class given is cell-based, Mycobacterium bovis BCG. As to conditions: for MIC: Mycobacterium tuberculosis variant bovis BCG, BCG, read-out: Liquid MIC.
Experiment [2] has as its system BCG. The experiment in a line: microbe, parasite or virus in culture. The class given is cell-based, Mycobacterium bovis BCG. The following applies: for MIC: Mycobacterium tuberculosis variant bovis BCG.
The test system of experiment [3] is M. smegmatis. The experiment in a line: microbe, parasite or virus in culture. The following applies: liquid medium. The format is cell-based, Mycobacterium smegmatis.
Experiment [4] concerns M. smegmatis. Nature of the experiment: MIC determination on solid agar. The class given is cell-based, Mycobacterium smegmatis. As to conditions: for MIC: read-out: Solid MIC. As for the experimental part: Drugs were diluted from a 10mM stock, mixed individually in 2 mLs of molten 7H10 agar and dispensed in square partitioned petri plates. Plates were incubated at 37°C and solid MIC was determined based on absence of colonies.

The test system of the next experiment is M. tuberculosis H37Rv. The experiment in a line: Alamar Blue (resazurin) MIC assay. The class given is cell-based, Mycobacterium tuberculosis. The following applies: liquid growth media. The method, then: To investigate the effects of repurposed compounds on growth of M. tuberculosis H37Rv using an Alamar Blue based MIC assay using the resazurin reagent. This assay was performed in 7H9 medium containing Middlebrook broth and 0.5% glycerol and supplemented with oleic acid, albumin, dextrose, and catalase. Clear- 96-well plates were inoculated with 100 μL of drug diluted with 90 μl of 7H9 medium and 10 μL DMSO. Serial 3-fold dilutions of each drug in 100 μL of 7H9 medium were prepared at various ranges. Growth controls containing no antibiotic and sterility controls without inoculation were also included. 200 μL of sterile deionized water was added to the outer perimeter wells to prevent evaporation during plate incubation. Plates were incubated plate at 37°C for 3–4 days. After incubation, the plates were removed and 10 μL of resazurin (0.02% w/v) was added to each well that contained bacteria. Assay plates were reincubated at 37°C for 24–48 hours and visually assessed for colour development. OD 570 nm readings were taken to provide further quantitation provide an interpretation of the dose response of the bacterium to repurposed compounds.
For orientation: Resazurin is reduced to fluorescent resorufin, in cell work by metabolically active cells.

A further experiment has as its system HepG2 cells. Nature of the experiment: HepG2 cytotoxicity assay (CellTitre-Glo). The class given is cell-based. As for the experimental part:
Actively growing HepG2 cells were removed from a T-175 tissue culture flask with 5 mL of Eagle’s MEM containing 10% FBS/1%NEAA/1% Penicillin and Streptomycin) and mixed with gentle pipetting. […] The cell suspension was added to 250 mL of the same medium at a final density of […]. […] Plates were allowed to incubate at 37°C at a relative humidity of 80% and 5% CO2 for 48 hours. After incubation, the plates were allowed to equilibrate at room temperature for 30 mins before 25 μL of CellTitre-Glo (Promega) reagent was added to each well using a multichannel pipette. Plates were left at room temperature for 30 mins before relative luminescence was read using a BMG Labtech POLARstar Omega plate reader.

In experiment [5] the test system is BCG over-expressing EchA12. Nature of the experiment: microbe, parasite or virus in culture. The format is cell-based, Mycobacterium bovis BCG.
The test system of a further experiment is BCG over-expressing AroB. Nature of the experiment: microbe, parasite or virus in culture. The format is cell-based, Mycobacterium bovis BCG.
Experiment [6] relates to BCG. The format is cell-based, Mycobacterium bovis BCG.
The subject of experiment [7] is M. smegmatis. The class given is cell-based, Mycobacterium smegmatis. The following applies: 20 μM compound, 48 hr read, GFP fluorescence.
The mark [8] stands for this setting: read-out: Solid MIC, BCG, 7H10 solid agar, absence of colonies.
Setting [9] is: read-out: Solid MIC, BCG, solid agar, values given in mM.
Where [10] appears, read: Mycolicibacterium smegmatis, M. smegmatis, 7H10 solid agar, absence of colonies.
The mark [11] stands for this setting: M. smegmatis, 7H10 solid agar, absence of colonies.

On to `CN(CCOc1ccc(CC2SC(=O)NC2=O)cc1)c1ccccn1` (centres unmarked) [Rosiglitazone], for which the MIC in the experiment on BCG [1] was 43.1 µM (≈ 15.4 µg/mL); in the experiment on BCG [2] (setting [8]) it was at least 1.5 mM; in the experiment with BCG [2] (setting [9]), about 1.5 mM (≈ 536 µg/mL).
On to `COC(=O)C1=C(C)NC(C)=C(C(=O)OCC(C)C)C1c1ccccc1[N+](=O)[O-]` (centres unmarked) [Nisoldipine], for which the MIC with M. smegmatis [3] amounted to 396.2 µM (≈ 154 µg/mL); in the experiment with M. smegmatis [4] (setting [10]) it was 100 µM (≈ 38.8 µg/mL).
In the case of `CN1C2CCCC1CC(NC(=O)c1nn(C)c3ccccc13)C2` (centres unmarked) [Granisteron, Granisetron], the “Liquid MIC” value with BCG [1] turned out to be 210.60 µM. The MIC in the experiment on BCG [1] was 211 µM (≈ 65.8 µg/mL); in the experiment with BCG [2] (setting [8]) it was at least 0.5 mM; with BCG [2] (setting [9]), over 0.5 mM.
Consider `CS(=O)(=O)c1ccc([C@@H](O)[C@@H](CF)NC(=O)C(Cl)Cl)cc1` [Florfenicol], for which the “Liquid MIC” value in the experiment on BCG [1] was 0.67 µM. Besides, the MIC in the experiment on BCG [1] is 0.7 µM (≈ 0.251 µg/mL); with BCG [2] (setting [8]) it was about 0.005 mM (≈ 1.79 µg/mL); in the experiment with M. tuberculosis H37Rv (Mycobacterium tuberculosis) it was 25.4 µM (≈ 9.1 µg/mL); in experiment [5] (Mycobacterium tuberculosis variant bovis BCG, BCG, read-out: MIC upon over-expression of EchA12) it was over 12 µM. In the experiment on BCG [2], the “Solid MIC relative to liquid MIC” value stood at 5 fold. For the same compound, the “Solid MIC” value with BCG [2] (7H10 solid agar, absence of colonies, listed as Florfenciol) was determined as 6 µM. Further, the pIC50 with HepG2 cells (Homo sapiens, HepG2, 48 hours) is under 3.60. Moreover, the “MIC in the absence of EchA12 over-expression, compared with wild-type BCG” value in experiment [5] is “unchanged”.
With `CN(C)CC/C=C1/c2ccccc2COc2ccc(CC(=O)O)cc21` [Olopatadine], the “Liquid MIC” value in the experiment with BCG [1] was determined as 202.30 µM. In addition, the MIC in the experiment on BCG [1] is 202 µM (≈ 68.3 µg/mL); in the experiment with BCG [2] (setting [8]), at least 0.5 mM; in the experiment with BCG [2] (setting [9]), over 0.5 mM.
Turning to `CCCCCCCCCCCCCCCC[N+](C)(C)CCN(Cc1ccc(OC)cc1)c1ncccn1` [Thonzonium, Thonzonium bromide], the MIC was 0.16 µM in the experiment with BCG [1] and about 0.005 mM with BCG [2] (setting [8]). In addition, the “Solid MIC relative to liquid MIC” value in the experiment on BCG [2] was 5 fold.
For `Fc1ccc(C(OCCN2CCN(CCCc3ccccc3)CC2)c2ccc(F)cc2)cc1` [GBR 12909, Vanoxerine], the MIC against M. smegmatis [3] (Mycolicibacterium smegmatis) is 18.6 µM (≈ 8.38 µg/mL); with M. smegmatis [4] (setting [10]), 62.5 µM (≈ 28.2 µg/mL); in the experiment with BCG [1] it was 20.5 µM (≈ 9.24 µg/mL); in the experiment on BCG [2] (setting [8]), 0.0282 mM (≈ 12.7 µg/mL); against M. tuberculosis H37Rv (Mycobacterium tuberculosis), 26.6 µM (≈ 12 µg/mL); in the experiment on BCG over-expressing AroB (Mycobacterium tuberculosis variant bovis BCG, BCG, read-out: MIC upon over-expression of AroB), over 50 µM. The same compound showed a pIC50 with HepG2 cells (Homo sapiens, HepG2, 48 hours) of 4.26. Also, in the experiment with BCG over-expressing AroB, the “MIC in the absence of AroB over-expression, compared with wild-type BCG” value was “unchanged”.
Consider `CC(=O)OC[C@H]1O[C@@H]([S-])[C@H](OC(C)=O)[C@@H](OC(C)=O)[C@@H]1OC(C)=O.CCP(CC)CC.[Au+]` [Auranofin], for which the MIC with M. smegmatis [3] is 0.51 µM; in the experiment with M. smegmatis [4] (setting [11]), 6.0 µM; in the experiment with M. tuberculosis H37Rv it was 0.27 µM. For the same compound, the “Solid MIC relative to liquid MIC” value in the experiment on M. smegmatis [4] (M. smegmatis) is listed as 12 fold. For the same compound, the pIC50 in the experiment with HepG2 cells (48 hours) is 5.52.
In the experiment on M. smegmatis [3] (Mycolicibacterium smegmatis), `CCCCC(CC)CNC(=N)NC(=N)NCCCCCCNC(=N)NC(=N)NCC(CC)CCCC` (centres unmarked) [Alexidine] came in with an MIC of 6.15 µM (≈ 3.13 µg/mL).
`CC(C)(N)Cc1ccccc1` [Phenteramine, Phentermine]: in the experiment on BCG [1], the MIC was determined as 375 µM (≈ 56 µg/mL).
On to `O=C(c1ccc(OCCN2CCCCC2)cc1)c1c(-c2ccc(O)cc2)sc2cc(O)ccc12` [Raloxifene], for which the MIC was 25.7 µM (≈ 12.2 µg/mL) in the experiment on M. smegmatis [3], 312.5 µM (≈ 148 µg/mL) with M. smegmatis [4] (setting [11]) and 22.10 µM (≈ 10.5 µg/mL) against M. tuberculosis H37Rv. The pIC50 in the experiment with HepG2 cells (48 hours) was 4.70.
For the compound `COc1ccc(CCN2CCC(Nc3nc4ccccc4n3Cc3ccc(F)cc3)CC2)cc1` [Astemizole], the “Liquid MIC” value in the experiment with BCG [1] was found to be 17.78 µM. Also, the figures for the MIC in the experiment on BCG [1], in the experiment on BCG [2] (setting [8]) and in the experiment on BCG [2] (setting [9]) were 17.8 µM (≈ 8.16 µg/mL), 0.05 mM (≈ 22.9 µg/mL) and about 0.05 mM (≈ 22.9 µg/mL), respectively.
For `C=C1c2c(Cl)ccc(O)c2C(=O)C2=C(O)[C@]3(O)C(=O)C(C(N)=O)=C(O)[C@@H](N(C)C)[C@@H]3[C@@H](O)[C@H]12` [Meclocyline sulfosalicylate, meclocycline sulfosalicylate], the values for the MIC with M. smegmatis [3] (Mycolicibacterium smegmatis), in the experiment with M. smegmatis [4] (setting [11]) and with M. smegmatis [4] (Mycolicibacterium smegmatis) were 0.1 µM (≈ 0.0477 µg/mL), 0.20 µM (≈ 0.0954 µg/mL) and 0.2 µM (≈ 0.0954 µg/mL), respectively.
Turning to `CC/C(=C(\c1ccccc1)c1ccc(OCCN(C)C)cc1)c1ccccc1` [Tamoxifen citrate], the MIC is 26.48 µM in the experiment on M. smegmatis [3] and at least 100 µM in the experiment with M. tuberculosis H37Rv (Mycobacterium tuberculosis).
As for `NC(=O)c1cnccn1` [pyrazinamide], the “% survival” value with BCG [6] was under 25%.
Regarding `CC[C@@H](CO)NCCN[C@@H](CC)CO` [ethambutol], the “% survival” value with M. smegmatis [7] and with BCG [6] was under 25% each time.
